In ChEMBL document CHEMBL1201862, “PubChem BioAssay data set” (2004):
Calls of active or inactive are those of the source.

Tests used:
Perilipin-1/ABHD5 = Perilipin-1/ABHD5 (Homo sapiens, UniProt O60240+Q8WTS1); test: Luminescence-based biochemical high throughput dose response assay for inhibitors of the interaction of the lipase co-activator protein, abhydrolase domain containing 5 (ABHD5) with perilipin-1 (PLIN1) (2K validation set). [Related pubchem assays (depositor defined):AID493027, AID493057]
[1] = target: 1-acylglycerol-3-phosphate O-acyltransferase ABHD5/Perilipin-5 (Homo sapiens, UniProt Q00G26+Q8WTS1); test: Luminescence-based biochemical high throughput dose response assay for inhibitors of the interaction of the lipase co-activator protein, abhydrolase domain containing 5 (ABHD5) with perilipin-5 (MLDP; PLIN5) (2K validation set). [Related pubchem assays (depositor defined):AID493035, AID493241]
[2] = target: T1, Endoribonuclease toxin MazF (Escherichia coli K-12, UniProt P0AE70); test: substrate-only fluorescence increase artefacts – biochemical, single-stranded RNase substrate, counter-screen for MazEF activator project, dose response (AID 588502); format: functional
T1 sequence (P0AE70 whole entry): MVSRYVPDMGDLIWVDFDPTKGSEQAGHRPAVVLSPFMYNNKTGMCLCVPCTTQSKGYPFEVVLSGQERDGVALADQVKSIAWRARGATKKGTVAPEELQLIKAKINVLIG

[3] = target: T1, Endoribonuclease toxin MazF; test: activation of MazEF endoribonuclease cleavage – biochemical, fluorescence, single-stranded RNA substrate, uHTS hits, dose response (AID 588481); format: functional
Caspase-3 = target: T2, Caspase-3 (Homo sapiens, UniProt P42574); test: activation of caspase-3 zymogen – biochemical, absorbance, dose response (AID 489014)
T2 sequence (P42574 whole entry): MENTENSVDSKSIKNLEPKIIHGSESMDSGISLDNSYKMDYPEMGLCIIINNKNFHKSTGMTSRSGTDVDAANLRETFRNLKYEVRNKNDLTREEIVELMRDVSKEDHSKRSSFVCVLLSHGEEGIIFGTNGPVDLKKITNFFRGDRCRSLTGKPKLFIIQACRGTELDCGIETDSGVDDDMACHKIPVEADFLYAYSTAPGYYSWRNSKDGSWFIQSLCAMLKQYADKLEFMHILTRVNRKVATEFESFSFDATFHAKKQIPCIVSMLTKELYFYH

Caspase-7 = target: T3, Caspase-7 (Homo sapiens, UniProt P55210); test: activation of caspase-7 zymogen – biochemical, absorbance, counter-screen for procaspase-3 activator project, dose response (AID 489013)
T3 sequence (P55210 whole entry): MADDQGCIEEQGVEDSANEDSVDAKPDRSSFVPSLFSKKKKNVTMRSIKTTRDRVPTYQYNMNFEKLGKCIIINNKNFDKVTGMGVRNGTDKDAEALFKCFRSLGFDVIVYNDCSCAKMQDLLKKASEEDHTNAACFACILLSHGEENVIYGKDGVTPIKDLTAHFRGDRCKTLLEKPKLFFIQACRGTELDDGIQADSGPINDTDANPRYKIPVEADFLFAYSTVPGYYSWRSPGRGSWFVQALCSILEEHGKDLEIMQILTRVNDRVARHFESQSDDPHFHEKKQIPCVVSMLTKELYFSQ

Beta-galactosidase = Beta-galactosidase (Escherichia coli, UniProt Q8VNN2); test: detection-enzyme interference by beta-gal modulators – biochemical, E. coli enzyme, set 3, artefact control for CCR6 antagonist project, dose response (AID 504712); format: functional
HEK293 [4] = test: cells; format: functional, cell-based; settings: Homo sapiens
Streptococcus = test: GAS UMAA2166 growth inhibition – luminescence, BacTiterGlo, counter-screen for streptokinase expression inhibitor project, dose response (AID 1915); format: functional, organism-based;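 note: potency for reduction of bacterial viability or growth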
[5] = target: T4, Nucleotide-binding oligomerization domain-containing protein 2 (Homo sapiens, UniProt Q9HC29); test: inhibition of NOD2 signaling – set 2, SAR follow-up (AID 2475); format: functional
HEK293 [6] = test: inhibition of NOD1-driven NF-kB reporter – cell-based, luminescence, uHTS, primary screen (AID 1578); format: functional; settings: Homo sapiens
HEK293 [7] = test: cells; format: functional, cell-based; settings: Homo sapiens; remark: listed apart in the source
[8] = HepG2 cell cytotoxicity, dose response, cytotoxicity control for non-replicating M. tuberculosis project (AID 489018); format: functional; settings: Mycobacterium tuberculosis
HEK293 [9] = test: cells; format: functional, cell-based; settings: Homo sapiens; remark: listed apart in the source
HEK293 [10] = test: SAR analysis of compounds that are cytotoxic to HEK293 - Set 2. [Related pubchem assays (depositor defined):AID1575, AID1578, AID1849, AID2001, AID2333, AID2334, AID2335, AID2337, AID2800]; format: functional, cell-based; settings: Homo sapiens
[11] = target: T5, Nucleotide-binding oligomerization domain-containing protein 1 (Homo sapiens, UniProt Q9Y239); test: blockers of NOD1 pathway activity – revised, SAR follow-up (AID 2333); format: functional
T5 sequence (Q9Y239 whole entry): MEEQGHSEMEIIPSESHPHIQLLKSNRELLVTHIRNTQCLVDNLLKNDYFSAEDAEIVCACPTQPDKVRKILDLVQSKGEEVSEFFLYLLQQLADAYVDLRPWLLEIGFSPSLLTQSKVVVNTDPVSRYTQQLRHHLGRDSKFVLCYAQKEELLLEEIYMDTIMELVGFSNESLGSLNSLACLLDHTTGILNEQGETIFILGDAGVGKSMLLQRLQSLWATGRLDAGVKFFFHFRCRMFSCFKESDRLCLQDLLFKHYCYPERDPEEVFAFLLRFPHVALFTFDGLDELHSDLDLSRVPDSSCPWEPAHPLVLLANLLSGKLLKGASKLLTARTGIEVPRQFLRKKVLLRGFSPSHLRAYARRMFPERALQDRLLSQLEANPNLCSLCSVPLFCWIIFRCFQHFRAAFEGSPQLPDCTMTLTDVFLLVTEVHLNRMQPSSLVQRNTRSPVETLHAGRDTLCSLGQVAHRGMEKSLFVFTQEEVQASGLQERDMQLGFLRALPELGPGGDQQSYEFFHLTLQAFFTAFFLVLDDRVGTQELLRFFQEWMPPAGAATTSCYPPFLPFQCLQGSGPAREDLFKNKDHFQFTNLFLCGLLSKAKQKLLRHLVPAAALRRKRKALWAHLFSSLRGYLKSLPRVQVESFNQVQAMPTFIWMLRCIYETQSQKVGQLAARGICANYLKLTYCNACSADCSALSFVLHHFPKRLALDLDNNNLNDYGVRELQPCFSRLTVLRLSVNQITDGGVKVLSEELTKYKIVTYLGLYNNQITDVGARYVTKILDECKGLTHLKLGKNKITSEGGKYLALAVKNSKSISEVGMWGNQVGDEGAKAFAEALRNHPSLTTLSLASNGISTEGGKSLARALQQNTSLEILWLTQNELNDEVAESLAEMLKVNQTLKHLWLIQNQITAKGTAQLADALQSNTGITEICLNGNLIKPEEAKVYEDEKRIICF

[12] = target: T4, Nucleotide-binding oligomerization domain-containing protein 2; test: inhibition of NOD2-driven NF-kB reporter – cell-based, luminescence, uHTS, HEK293 (AID 1566); format: functional
Tumor necrosis factor = Tumor necrosis factor (Homo sapiens, UniProt P01375); test: analog potency on TNFa NF-kB signaling – cell-based, revised, SAR follow-up (AID 2337); format: functional
[13] = target: T4, Nucleotide-binding oligomerization domain-containing protein 2; test: PubChem AID 2334; format: functional
[14] = Vero E6 cell cytotoxicity, dose response, cytotoxicity control for non-replicating M. tuberculosis project, secondary assay (AID 492998); format: functional, VeroE6; settings: Vero C1008
HEK293 [15] = test: cells; settings: Homo sapiens
[16] = THP-1 cell cytotoxicity, dose response, cytotoxicity control for non-replicating M. tuberculosis project (AID 489025); format: functional
HEK293 [17] = test: NOD2 signaling inhibitors in MDP-stimulated cells, cell-based, uHTS, luminescence (AID 2001); format: functional; settings: Homo sapiens
cells = format: functional
[18] = tested on: Streptococcus sp. 'group A'; test: Streptococcus pyogenes SK(-)GAS viability under kanamycin – luminescence, BacTiterGlo, confirmation, counter-screen for streptokinase expression inhibitor project, dose response (AID 1900); format: functional, organism-based
Streptokinase A = target: T6, Streptokinase A (Streptococcus pyogenes serotype M1, UniProt P10520); test: viability-normalized secreted streptokinase activity reduction – plasminogen activation absorbance, OD405, dose response (AID 1914); format: functional, Streptococcus pyogenes M1 GAS;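 note: secreted streptokinase activity via plasminogen activation per viability signal from cell pellet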
T6 sequence (P10520 whole entry): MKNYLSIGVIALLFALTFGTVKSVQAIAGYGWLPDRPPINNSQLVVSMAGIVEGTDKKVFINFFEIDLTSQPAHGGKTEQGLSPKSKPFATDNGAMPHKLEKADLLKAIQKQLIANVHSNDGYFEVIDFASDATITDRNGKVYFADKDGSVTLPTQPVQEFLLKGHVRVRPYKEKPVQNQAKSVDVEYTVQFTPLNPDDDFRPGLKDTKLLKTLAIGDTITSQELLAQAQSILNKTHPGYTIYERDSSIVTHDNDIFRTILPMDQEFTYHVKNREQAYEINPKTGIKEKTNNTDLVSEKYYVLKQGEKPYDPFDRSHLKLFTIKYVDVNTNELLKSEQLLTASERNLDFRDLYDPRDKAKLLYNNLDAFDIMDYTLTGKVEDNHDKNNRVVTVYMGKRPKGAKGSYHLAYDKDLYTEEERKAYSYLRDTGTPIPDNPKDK

Coagulation factor XII = target: T7, Coagulation factor XII (Homo sapiens, UniProt P00748); test: Factor XIIa Dose Response Confirmation from Single Well HTS. [Related pubchem assays (depositor defined):AID701]; format: functional
T7 sequence (P00748 whole entry): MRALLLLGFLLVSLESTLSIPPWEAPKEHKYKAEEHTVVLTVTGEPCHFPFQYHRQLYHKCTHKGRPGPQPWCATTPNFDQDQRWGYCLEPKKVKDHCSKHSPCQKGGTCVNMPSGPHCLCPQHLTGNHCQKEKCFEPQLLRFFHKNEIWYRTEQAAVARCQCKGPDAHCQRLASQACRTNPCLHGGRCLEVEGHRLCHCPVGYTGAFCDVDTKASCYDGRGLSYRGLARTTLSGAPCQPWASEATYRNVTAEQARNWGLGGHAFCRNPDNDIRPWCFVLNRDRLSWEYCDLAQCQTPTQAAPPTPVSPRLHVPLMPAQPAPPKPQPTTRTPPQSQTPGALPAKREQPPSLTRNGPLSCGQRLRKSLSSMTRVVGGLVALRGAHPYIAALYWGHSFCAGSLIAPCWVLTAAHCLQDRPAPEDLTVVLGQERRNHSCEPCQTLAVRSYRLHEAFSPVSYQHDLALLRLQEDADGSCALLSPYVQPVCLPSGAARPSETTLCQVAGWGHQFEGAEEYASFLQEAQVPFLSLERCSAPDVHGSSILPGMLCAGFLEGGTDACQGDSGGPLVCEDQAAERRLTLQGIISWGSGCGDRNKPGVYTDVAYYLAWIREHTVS

[19] = target: T8, G-protein coupled receptor 55 (Homo sapiens, UniProt Q9Y2T6); test: inhibition of LPI-stimulated GPR55 beta-arrestin translocation – imaging, U2OS, beta-arrestin-GFP, LPI agonist, primary screen (AID 2013); format: functional;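 note: antagonist potency measured as reduced agonist-driven arrestin aggregation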
T-cell = test: loss of vesicle association with mouse CD8+ T cells – mouse 2C CD8+ T cells, flow cytometry, dose response (AID 485284); format: functional
[20] = target: T9, G-protein coupled receptor 35 (Homo sapiens, UniProt Q9HC97); test: inhibition of zaprinast-stimulated GPR35 beta-arrestin translocation – imaging, U2OS, beta-arrestin-GFP, zaprinast agonist, primary screen (AID 2058); format: functional;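 note: antagonist potency meaning inhibition of agonist-induced arrestin redistribution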
[21] = target: T9, G-protein coupled receptor 35; test: SAR analysis of Antagonists of the GPR35 Receptor using an Image-Based Assay - Set 5. [Related pubchem assays (depositor defined):AID2058, AID2079]; format: functional
[22] = target: T8, G-protein coupled receptor 55; test: SAR Analysis of Selective Antagonists of GPR55 using an Image-Based Assay - Set 3. [Related pubchem assays (depositor defined):AID2058, AID2079]; format: functional
[23] = target: T9, G-protein coupled receptor 35; test: SAR Analysis for the identification of Selective Antagonists of ERK1/2 Activity in GPR35-Overexpressing U2OS Cells - Set 2. [Related pubchem assays (depositor defined):AID2058, AID2079]; format: functional, cell-based

T9 sequence (Q9HC97 whole entry): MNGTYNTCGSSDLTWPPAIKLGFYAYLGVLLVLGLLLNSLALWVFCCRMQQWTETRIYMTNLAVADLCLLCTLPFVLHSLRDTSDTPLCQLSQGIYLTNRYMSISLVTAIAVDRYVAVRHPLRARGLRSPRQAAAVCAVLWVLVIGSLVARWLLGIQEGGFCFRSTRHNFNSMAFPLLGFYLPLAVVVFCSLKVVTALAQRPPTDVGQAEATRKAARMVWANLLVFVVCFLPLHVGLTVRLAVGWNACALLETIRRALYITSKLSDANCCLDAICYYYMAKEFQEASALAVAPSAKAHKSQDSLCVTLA
T4 sequence (Q9HC29 whole entry, the tested form may be a part): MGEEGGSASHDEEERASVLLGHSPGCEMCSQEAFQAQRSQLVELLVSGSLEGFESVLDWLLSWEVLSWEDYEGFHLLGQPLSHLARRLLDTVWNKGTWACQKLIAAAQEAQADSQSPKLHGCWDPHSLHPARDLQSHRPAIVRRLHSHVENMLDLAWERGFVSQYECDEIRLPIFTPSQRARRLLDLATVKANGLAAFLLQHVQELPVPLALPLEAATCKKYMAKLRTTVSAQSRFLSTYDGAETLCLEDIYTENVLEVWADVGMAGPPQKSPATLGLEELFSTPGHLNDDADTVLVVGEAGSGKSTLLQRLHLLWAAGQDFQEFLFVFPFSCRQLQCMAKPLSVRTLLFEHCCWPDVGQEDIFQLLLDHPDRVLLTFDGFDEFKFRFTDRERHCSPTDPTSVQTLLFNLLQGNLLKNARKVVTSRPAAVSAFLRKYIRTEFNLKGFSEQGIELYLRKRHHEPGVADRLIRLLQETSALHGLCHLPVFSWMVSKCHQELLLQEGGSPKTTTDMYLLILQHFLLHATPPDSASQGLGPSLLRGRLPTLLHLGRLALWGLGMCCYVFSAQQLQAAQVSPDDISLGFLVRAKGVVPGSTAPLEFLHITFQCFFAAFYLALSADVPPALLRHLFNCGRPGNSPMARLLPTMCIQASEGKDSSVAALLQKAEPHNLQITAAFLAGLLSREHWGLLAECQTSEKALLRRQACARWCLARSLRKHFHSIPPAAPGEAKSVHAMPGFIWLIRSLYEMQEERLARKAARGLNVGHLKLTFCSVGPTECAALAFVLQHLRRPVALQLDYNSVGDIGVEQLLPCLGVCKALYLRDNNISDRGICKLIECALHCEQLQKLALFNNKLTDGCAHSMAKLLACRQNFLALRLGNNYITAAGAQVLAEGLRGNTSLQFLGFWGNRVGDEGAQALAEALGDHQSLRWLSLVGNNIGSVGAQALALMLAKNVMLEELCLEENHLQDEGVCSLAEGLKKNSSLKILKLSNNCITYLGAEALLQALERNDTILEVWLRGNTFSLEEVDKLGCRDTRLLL
Chain of Tumor necrosis factor (P01375 whole entry, the tested form may be a part): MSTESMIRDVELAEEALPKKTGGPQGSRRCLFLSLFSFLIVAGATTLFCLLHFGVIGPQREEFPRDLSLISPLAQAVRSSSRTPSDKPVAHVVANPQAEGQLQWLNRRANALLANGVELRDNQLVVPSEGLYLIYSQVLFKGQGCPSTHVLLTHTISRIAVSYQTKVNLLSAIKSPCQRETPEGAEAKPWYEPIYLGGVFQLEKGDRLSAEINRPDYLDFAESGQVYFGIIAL
T8 sequence (Q9Y2T6 whole entry): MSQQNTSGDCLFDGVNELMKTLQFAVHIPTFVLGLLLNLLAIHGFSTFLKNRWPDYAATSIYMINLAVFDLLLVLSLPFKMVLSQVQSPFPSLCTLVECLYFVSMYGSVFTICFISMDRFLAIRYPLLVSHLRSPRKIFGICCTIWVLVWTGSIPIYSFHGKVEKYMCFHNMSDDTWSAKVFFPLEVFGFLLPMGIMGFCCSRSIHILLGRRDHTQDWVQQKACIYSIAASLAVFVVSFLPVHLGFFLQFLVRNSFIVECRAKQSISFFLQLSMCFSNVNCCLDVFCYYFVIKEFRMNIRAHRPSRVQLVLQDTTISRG
Chain of Perilipin-1/ABHD5 (Q8WTS1 whole entry, the tested form may be a part): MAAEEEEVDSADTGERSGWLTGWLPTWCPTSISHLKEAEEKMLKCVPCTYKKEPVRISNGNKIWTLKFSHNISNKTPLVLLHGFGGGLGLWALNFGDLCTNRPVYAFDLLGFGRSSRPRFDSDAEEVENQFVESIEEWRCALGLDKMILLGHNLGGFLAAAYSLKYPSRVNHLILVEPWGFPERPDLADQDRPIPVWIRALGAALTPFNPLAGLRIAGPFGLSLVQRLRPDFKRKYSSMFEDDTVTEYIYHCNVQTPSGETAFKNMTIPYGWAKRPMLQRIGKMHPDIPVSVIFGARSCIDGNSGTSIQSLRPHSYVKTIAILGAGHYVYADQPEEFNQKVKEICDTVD
Chain of Perilipin-1/ABHD5 (O60240 whole entry, the tested form may be a part): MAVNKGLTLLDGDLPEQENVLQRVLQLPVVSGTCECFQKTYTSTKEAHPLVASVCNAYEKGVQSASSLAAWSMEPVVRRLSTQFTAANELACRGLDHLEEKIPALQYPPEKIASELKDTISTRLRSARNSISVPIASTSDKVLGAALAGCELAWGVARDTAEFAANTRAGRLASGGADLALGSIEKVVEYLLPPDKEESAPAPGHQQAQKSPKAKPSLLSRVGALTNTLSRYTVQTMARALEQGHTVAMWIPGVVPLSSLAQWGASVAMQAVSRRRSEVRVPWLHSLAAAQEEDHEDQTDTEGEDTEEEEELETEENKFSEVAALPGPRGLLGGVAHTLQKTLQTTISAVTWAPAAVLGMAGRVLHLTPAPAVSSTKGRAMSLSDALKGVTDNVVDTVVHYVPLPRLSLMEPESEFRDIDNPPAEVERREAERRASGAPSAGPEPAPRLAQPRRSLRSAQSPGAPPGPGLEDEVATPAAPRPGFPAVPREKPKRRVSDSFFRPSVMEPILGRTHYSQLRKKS
Chain of Beta-galactosidase (Q8VNN2 whole entry): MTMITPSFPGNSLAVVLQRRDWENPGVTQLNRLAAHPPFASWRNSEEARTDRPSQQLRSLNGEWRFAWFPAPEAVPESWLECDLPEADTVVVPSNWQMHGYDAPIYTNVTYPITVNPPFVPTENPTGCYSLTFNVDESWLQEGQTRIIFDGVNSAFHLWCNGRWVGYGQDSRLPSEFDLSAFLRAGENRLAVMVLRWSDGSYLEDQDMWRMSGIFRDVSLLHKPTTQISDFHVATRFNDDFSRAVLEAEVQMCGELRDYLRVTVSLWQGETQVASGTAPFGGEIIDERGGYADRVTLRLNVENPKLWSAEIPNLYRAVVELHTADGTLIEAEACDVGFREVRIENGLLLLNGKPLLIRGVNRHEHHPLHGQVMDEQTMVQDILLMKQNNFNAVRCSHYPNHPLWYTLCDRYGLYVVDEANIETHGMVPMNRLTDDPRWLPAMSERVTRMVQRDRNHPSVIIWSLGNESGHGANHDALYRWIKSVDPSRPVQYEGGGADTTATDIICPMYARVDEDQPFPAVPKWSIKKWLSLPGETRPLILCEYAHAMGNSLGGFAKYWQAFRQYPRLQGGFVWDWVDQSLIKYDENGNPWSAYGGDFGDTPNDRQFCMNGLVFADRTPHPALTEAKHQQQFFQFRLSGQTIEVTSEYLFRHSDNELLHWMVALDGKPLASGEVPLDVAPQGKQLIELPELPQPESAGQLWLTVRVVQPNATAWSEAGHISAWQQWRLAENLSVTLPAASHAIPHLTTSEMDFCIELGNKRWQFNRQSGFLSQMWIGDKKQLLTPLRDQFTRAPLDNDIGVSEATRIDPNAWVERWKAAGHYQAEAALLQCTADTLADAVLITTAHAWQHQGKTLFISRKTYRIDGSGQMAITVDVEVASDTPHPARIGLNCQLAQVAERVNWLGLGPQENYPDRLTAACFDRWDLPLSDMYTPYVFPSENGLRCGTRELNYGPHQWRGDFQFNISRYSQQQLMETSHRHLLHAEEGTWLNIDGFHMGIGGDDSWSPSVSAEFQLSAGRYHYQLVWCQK
Chain of 1-acylglycerol-3-phosphate O-acyltransferase ABHD5/Perilipin-5 (Q00G26 whole entry, the tested form may be a part): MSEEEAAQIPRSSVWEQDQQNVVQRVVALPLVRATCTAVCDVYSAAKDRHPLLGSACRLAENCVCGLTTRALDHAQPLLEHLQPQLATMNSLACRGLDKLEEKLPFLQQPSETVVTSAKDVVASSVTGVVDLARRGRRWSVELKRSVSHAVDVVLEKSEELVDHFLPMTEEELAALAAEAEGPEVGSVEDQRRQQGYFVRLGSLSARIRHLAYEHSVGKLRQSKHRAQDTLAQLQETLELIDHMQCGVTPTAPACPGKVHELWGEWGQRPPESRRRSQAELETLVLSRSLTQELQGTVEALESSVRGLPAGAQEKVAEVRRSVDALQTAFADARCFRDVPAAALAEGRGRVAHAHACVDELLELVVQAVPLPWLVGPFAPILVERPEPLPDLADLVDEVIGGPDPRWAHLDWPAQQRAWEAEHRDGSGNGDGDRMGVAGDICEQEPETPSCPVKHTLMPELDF
Chain of 1-acylglycerol-3-phosphate O-acyltransferase ABHD5/Perilipin-5 (Q8WTS1 whole entry, the tested form may be a part): as the sequence (Q8WTS1 whole entry, the tested form may be a part) above

Structure (SMILES): O=C(/C=C/c1ccc2c(c1)OCO2)c1ccccn1
- IC50 (Perilipin-1/ABHD5): 6.85 µM (active)
- IC50 [1]: 6.96 µM (active)

Structure (SMILES): COc1ccccc1Nc1nc2c(C)cccc2cc1C#N
- EC50 [2]: 7.39 µM (active)
- EC50 [3]: > 99 µM (inactive)
- EC50 (Caspase-3): 3.54 µM (active)
- EC50 (Caspase-7): 9.49 µM (active)

Structure (SMILES): O=C(NC(=S)N1CCN(c2ccc(C(F)(F)F)cc2[N+](=O)[O-])CC1)c1cccs1
- IC50 (Beta-galactosidase): > 66.6 µM (inactive)

Structure (SMILES): CCC(=O)Nc1nc2ccccc2n1Cc1ccccc1Cl
- IC50 (HEK293 [4]): > 20 µM (inactive)
- EC50 (Streptococcus): 105 µM (active)
- IC50 [5]: 5.24 µM (active)
- EC50 (HEK293 [6]): > 20 µM (inactive)
- IC50 (HEK293 [7]): > 20 µM (inactive)
- CC50 [8]: > 20 µM (active)
- IC50 (HEK293 [9]): > 20 µM (inactive)
- IC50 (HEK293 [10]): > 20 µM (inactive)
- IC50 [11]: > 20 µM (inactive)
- EC50 [12]: > 20 µM (inactive)
- IC50 (Tumor necrosis factor): > 20 µM (inactive)
- IC50 [13]: > 20 µM (inactive)
- CC50 [14]: 10.9 µM (active)
- IC50 (HEK293 [15]): > 20 µM (inactive)
- CC50 [16]: 29.7 µM (active)
- IC50 (HEK293 [17]): 3.8 µM (active)
- IC50 (cells): 0.21 µM (active)
- EC50 [18]: 6.44 µM (active)
- EC50 (Streptokinase A): > 150 µM (not active)

Structure (SMILES): Cc1cc(NC(=O)C(C)C)ncc1NC(=O)Cc1ccccc1
- IC50 (Coagulation factor XII): > 50 µM (inactive)

Structure (SMILES): CCSc1nnc2nc3c(c(O)n12)C1(CCCCC1)Cc1ccccc1-3
- IC50 [19]: 8.6 µM (active)

Structure (SMILES): COc1ccccc1CNC(=O)COc1ccc(C)cc1
- EC50 (T-cell): 22.1 µM (active)

Structure (SMILES): CNC(=S)N/N=C/c1c(C(=O)OC)cnn1-c1ccc(F)cc1F
- IC50 [20]: 1.11 µM (active)
- IC50 [21]: 2.49 µM (active)
- IC50 [22]: > 32 µM (inactive)
- IC50 [23]: 2.29 µM (active)
